Experimental findings from patent US11564923B2, “Compounds and pharmaceutical compositions thereof for the treatment of inflammatory disorders” (Galapagos NV, priority 2017, dated 2023) are described below.

Counter-ions that a name gives are not always drawn.

Experiment [1] addresses T1, Recombinant human JAK1 (catalytic domain, amino acids 866-1154) (Homo sapiens, UniProt P23458).
T1 construct: catalytic domain, amino acids 866-1154
Briefly: JAK1 inhibition assay. The class given is biochemical. As to conditions: read-out: JAK1 potency IC50.

Experiment [2] has as its target T2, Recombinant human JAK2 (catalytic domain, amino acids 808-1132) (Homo sapiens, UniProt O60674).
T2 construct: catalytic domain, amino acids 808-1132
The experiment in a line: JAK2 inhibition assay. Note: 0.7 µM ATP. The settings on record: read-out: JAK2 potency IC50. In kind it is biochemical.

Experiment [3] has as its target Recombinant human JAK3 catalytic domain (amino acids 781-1124) (Homo sapiens, UniProt P52333). Briefly: JAK3 inhibition assay. In kind it is biochemical. The essentials: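 Radiometric kinase reaction run 45 min at 30° C., stopped with phosphoric acid; activity as vehicle cpm minus 10 μM staurosporine cpm.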
The target of experiment [4] is T3, Recombinant human TYK2 catalytic domain (amino acids 871-1187) (Homo sapiens, UniProt P29597).
T3 construct: catalytic domain (amino acids 871-1187)
T3 sequence (P29597 871-1187): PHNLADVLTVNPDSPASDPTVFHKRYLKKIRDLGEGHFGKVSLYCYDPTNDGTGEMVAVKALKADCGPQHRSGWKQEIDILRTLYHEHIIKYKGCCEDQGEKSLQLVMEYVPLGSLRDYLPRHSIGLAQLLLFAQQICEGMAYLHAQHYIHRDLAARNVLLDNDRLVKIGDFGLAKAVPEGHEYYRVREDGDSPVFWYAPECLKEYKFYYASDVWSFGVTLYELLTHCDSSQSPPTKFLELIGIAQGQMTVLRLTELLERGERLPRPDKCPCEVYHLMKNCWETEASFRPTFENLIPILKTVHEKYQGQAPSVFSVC
Briefly: TYK2 radioactive assay polyGT substrate. Note: 0.1 µM ATP. The class given is biochemical. The method, boiled down: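 Reaction at 30° C. for 120 min, ended with 150 mM phosphoric acid, washed, counted; percent inhibition scaled between vehicle and 10 μM staurosporine cpm.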

Experiment [5] deals with IFNα activation of STAT1 in PBMC. Briefly: IFNα activation of STAT1 in PBMC. In kind it is cell-based. The settings on record: Homo sapiens; IFNα activation of STAT1 in PBMC; average IC50; read-out: IFNα signaling inhibitory potency IC50. The method, boiled down: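 Human PBMC, with red cells lysed by NH4Cl, were pre-treated with compound for 30 min at 37 °C and 5% CO2. They were then stimulated for 30 min with recombinant human IFNα at 5 ng/mL final.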

The subject of experiment [6] is IL-12 activation of STAT4 in NK-92 cells. The experiment in a line: IL-12 activation of STAT4 in NK-92 cells using AphaLISA SureFire technology. As to conditions: Homo sapiens, NK92; IL-12 activation of STAT4 in NK-92 cells, AlphaLISA SureFire; average IC50; read-out: IL12 pSTAT4 IC50. In kind it is cell-based. The method, boiled down: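 NK-92 cells, starved of rhIL-2 overnight, were stimulated with rhIL-12 for 30 min at 37 °C with test compounds, then lysed. Phospho-STAT4 (Tyr693) was read by AlphaLISA SureFire. Percent inhibition versus the vehicle-plus-trigger signal was fitted by sigmoidal nonlinear regression to give IC50, averaged over experiments.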

T2 sequence (O60674 808-1132): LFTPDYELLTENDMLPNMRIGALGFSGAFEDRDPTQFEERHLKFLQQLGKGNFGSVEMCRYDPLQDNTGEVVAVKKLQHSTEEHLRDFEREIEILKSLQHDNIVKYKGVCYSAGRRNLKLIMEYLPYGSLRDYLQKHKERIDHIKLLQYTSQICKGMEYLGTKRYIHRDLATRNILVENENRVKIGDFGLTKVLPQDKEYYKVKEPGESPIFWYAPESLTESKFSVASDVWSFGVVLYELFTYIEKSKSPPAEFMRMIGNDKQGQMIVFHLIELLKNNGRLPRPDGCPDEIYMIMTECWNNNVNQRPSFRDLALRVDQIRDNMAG
T1 sequence (P23458 866-1154): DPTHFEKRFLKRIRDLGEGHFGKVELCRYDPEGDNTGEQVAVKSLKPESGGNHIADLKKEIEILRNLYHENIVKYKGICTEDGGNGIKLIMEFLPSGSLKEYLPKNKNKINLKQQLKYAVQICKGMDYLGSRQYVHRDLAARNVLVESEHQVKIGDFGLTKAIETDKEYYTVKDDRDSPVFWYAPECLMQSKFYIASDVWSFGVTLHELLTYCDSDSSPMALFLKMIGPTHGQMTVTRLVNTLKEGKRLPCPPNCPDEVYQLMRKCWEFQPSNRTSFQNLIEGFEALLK
Sequence of Recombinant human JAK3 catalytic domain (amino acids 781-1124) (P52333 781-1124): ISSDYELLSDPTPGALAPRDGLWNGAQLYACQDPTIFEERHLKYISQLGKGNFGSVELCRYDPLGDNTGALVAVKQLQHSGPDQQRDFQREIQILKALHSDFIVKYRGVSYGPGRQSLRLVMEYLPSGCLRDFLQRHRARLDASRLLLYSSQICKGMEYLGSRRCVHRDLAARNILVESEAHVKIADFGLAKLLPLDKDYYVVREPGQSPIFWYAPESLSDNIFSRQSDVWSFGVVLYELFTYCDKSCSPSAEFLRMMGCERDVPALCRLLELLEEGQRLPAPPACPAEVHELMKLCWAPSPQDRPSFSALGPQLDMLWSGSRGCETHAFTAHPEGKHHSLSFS

As for `Cn1cnc2c(Nc3ccc(S(C)(=O)=O)cn3)cc(OC(C3CC3)C(F)(F)F)nc21` (stereo not drawn) [Compound 22, 5-(1-cyclopropyl-2,2,2-trifluoro-ethoxy)-3-methyl-N-(5-methylsulfonyl-2-pyridyl)imidazo[4,5-b]pyridin-7-amine], the 50% inhibitory concentration (IC50) in experiment [1] was determined as 23 nM; in experiment [2], 3.35 nM; in experiment [3], 97.9 nM; in experiment [4], 3.07 nM; in experiment [5] it was 50 nM; in experiment [6] it was 22 nM.
`COCCNc1cc(Nc2cc(Oc3cnc(C#N)cc3C)nc3c2ncn3C)ncn1` [Compound 31, 5-{7-[6-(2-Methoxy-ethylamino)-pyrimidin-4-ylamino]-3-methyl-3H-imidazo[4,5-b]pyridin-5-yloxy}-4-methyl-pyridine-2-carbonitrile]: the half-maximal inhibitory concentration (IC50) in experiment [1] is 187 nM; in experiment [2], 43.8 nM; in experiment [3], 1050 nM; in experiment [4], 8.01 nM; in experiment [5], 94 nM; in experiment [6], 110 nM.
Turning to `Cc1cc(C#N)ncc1Oc1cc(Nc2cc(NCCC(C)(C)O)ncn2)c2ncn(C)c2n1` [Compound 33, 5-{7-[6-(3-Hydroxy-3-methyl-butylamino)-pyrimidin-4-ylamino]-3-methyl-3H-imidazo[4,5-b]pyridin-5-yloxy}-4-methyl-pyridine-2-carbonitrile], the IC50 in experiment [1] stood at 67.6 nM; in experiment [2] it was 23.1 nM; in experiment [3] it was 503 nM; in experiment [4], 2.93 nM; in experiment [5], 72 nM; in experiment [6], 129 nM.
Regarding `COC1CC(Nc2cc(Nc3cc(Oc4cnc(C#N)cc4C)nc4c3ncn4C)ncn2)C1` (stereo not drawn) [Compound 36, 5-{7-[6-(3-Methoxy-cyclobutylamino)-pyrimidin-4-ylamino]-3-methyl-3H-imidazo[4,5-b]pyridin-5-yloxy}-4-methyl-pyridine-2-carbonitrile], the 50% inhibitory concentration (IC50) in experiment [1] was 40.5 nM; in experiment [2], 9.17 nM; in experiment [3], 417 nM; in experiment [4], 1.41 nM; in experiment [5], 79 nM; in experiment [6] it was 50 nM.
Consider `Cc1cc(C#N)ncc1Oc1cc(Nc2cnn(C)c2)c2ncn(C)c2n1` [Compound 61, 4-methyl-5-[3-methyl-7-[(1-methylpyrazol-4-yl)amino]imidazo[4,5-b]pyridin-5-yl]oxy-pyridine-2-carbonitrile], for which the IC50 in experiment [1] is 60.3 nM; in experiment [2] it was 58.4 nM; in experiment [3] it was 1110 nM; in experiment [4], 10.3 nM; in experiment [5] it was 112 nM; in experiment [6], 221 nM.
For the compound `CC(C)C(Nc1cc(Nc2ccc(S(C)(=O)=O)cn2)c2ncn(C)c2n1)C(F)(F)F` (stereo not drawn) [Compound 65, 3-methyl-N7-(5-methylsulfonyl-2-pyridiyl)-N5-[2-methyl-1-(trifluoromethyl)propyl]imidazo[4,5-b]pyridine-5,7-diamine], the IC50 in experiment [1] amounted to 69.4 nM; in experiment [2], 12.4 nM; in experiment [3], 69.7 nM; in experiment [4] it was 7.84 nM; in experiment [5], 96 nM; in experiment [6], 80 nM.
Take `COCCCS(=O)(=O)c1ccc(Nc2cc(Oc3cnc(C#N)cc3C)nc3c2ncn3C)cc1` [Compound 71, 5-[7-[4-(3-methoxypropylsulfonyl)anilino]-3-methyl-imidazo[4,5-b]pyridin-5-yl]oxy-4-methyl-pyridine-2-carbonitrile]: the IC50 is 103 nM in experiment [1]; 86.2 nM in experiment [2]; 1080 nM in experiment [3]; 13.6 nM in experiment [4]; 111 nM in experiment [5]; 128 nM in experiment [6].
As for `CCNC(c1ccc(Nc2cc(Oc3cnc(C#N)cc3C)nc3c2ncn3C)nc1)C(F)(F)F` (stereo not drawn) [Compound 80, 5-[7-[[5-[1-(ethylamino)-2,2,2-trifluoroethyl]pyridin-2-yl]amino]-3-methylimidazo[4,5-b]pyridin-5-yl]oxy-4-methylpyridine-2-carbonitrile], the concentration for half-maximal inhibition (IC50) in experiment [1] is 19.9 nM; in experiment [2], 5.2 nM; in experiment [3], 392 nM; in experiment [4], 2.22 nM; in experiment [5] it was 93 nM; in experiment [6], 83 nM.
For the compound `Cc1cc(C#N)ncc1Oc1cc(Nc2ccc(CN(C)C)cn2)c2ncn(C)c2n1` [Compound 81, 5-[7-[[5-[(dimethylamino)methyl]pyridin-2-yl]amino]-3-methylimidazo[4,5-b]pyridin-5-yl]oxy-4-methylpyridine-2-carbonitrile formate salt], the concentration for half-maximal inhibition (IC50) in experiment [1] came to 150 nM; in experiment [2], 10.4 nM; in experiment [3], 386 nM; in experiment [4], 6.83 nM; in experiment [5], 56 nM; in experiment [6] it was 224 nM.
Turning to `COc1ccc(Nc2cc(Oc3cnc(C#N)cc3C)nc3c2ncn3C)nc1` [Compound 84, 5-[7-[(5-methoxypyridin-2-yl)amino]-3-methylimidazo[4,5-b]pyridin-5-yl]oxy-4-methylpyridine-2-carbonitrile], the IC50 is 57.1 nM in experiment [1]; 45.5 nM in experiment [2]; 908 nM in experiment [3]; 11 nM in experiment [4]; 178 nM in experiment [5]; 87 nM in experiment [6].
With `Cc1cc(C#N)ncc1Oc1cc(Nc2ccc(N3CCOC[C@@H]3C)cn2)c2ncn(C)c2n1` [Compound 85, 4-methyl-5-[3-methyl-7-[[5-[(3S)-3-methylmorpholin-4-yl]pyridin-2-yl]amino]imidazo[4,5-b]pyridin-5-yl]oxypyridine-2-carbonitrile], the IC50 in experiment [1] was 30.4 nM; in experiment [2], 10.5 nM; in experiment [3] it was 479 nM; in experiment [4], 4.81 nM; in experiment [5] it was 115 nM; in experiment [6], 154 nM.
For the compound `Cc1cc(C#N)ncc1Oc1cc(Nc2ccc(OC3CCN(C)CC3)cn2)c2ncn(C)c2n1` [Compound 86, 4-methyl-5-[3-methyl-7-[[5-(1-methylpiperidin-4-yl)oxypyridin-2-yl]amino]imidazo[4,5-b]pyridin-5-yl]oxypyridine-2-carbonitrile], the IC50 in experiment [1] worked out at 197 nM; in experiment [2] it was 22.9 nM; in experiment [3], 446 nM; in experiment [4], 9.06 nM; in experiment [5], 121 nM; in experiment [6], 506 nM.
Regarding `Cc1cc(C#N)ncc1Oc1cc(Nc2ccc(C3CCOCC3)cn2)c2ncn(C)c2n1` [Compound 87, 4-methyl-5-[3-methyl-7-[[5-(oxan-4-yl)pyridin-2-yl]amino]imidazo[4,5-b]pyridin-5-yl]oxypyridine-2-carbonitrile], the half-inhibitory concentration (IC50) in experiment [1] was found to be 73.1 nM; in experiment [2], 38.8 nM; in experiment [3] it was 979 nM; in experiment [4] it was 8.81 nM; in experiment [5], 158 nM; in experiment [6], 266 nM.
Take `Cc1cc(C#N)ncc1Oc1cc(Nc2ccc(C3(O)COC3)cc2)c2ncn(C)c2n1` [Compound 89, 5-[7-[4-(3-hydroxyoxetan-3-yl)anilino]-3-methylimidazo[4,5-b]pyridin-5-yl]oxy-4-methylpyridine-2-carbonitrile]: the IC50 in experiment [1] was determined as 71.5 nM; in experiment [2] it was 110 nM; in experiment [3], 1990 nM; in experiment [4], 11 nM; in experiment [5], 266 nM; in experiment [6], 476 nM.
In the case of `CC(C)[C@@H](Nc1cc(Nc2cc(N)ncn2)c2ncn(C)c2n1)C(F)(F)F` [Compound 98, N7-(6-aminopyrimidin-4-yl)-3-methyl-N5-[(1R)-2-methyl-1-(trifluoromethyl)propyl]imidazo[4,5-b]pyridine-5,7-diamine], the half-inhibitory concentration (IC50) came out at 28.2 nM in experiment [1]; 6.31 nM in experiment [2]; 48.2 nM in experiment [3]; 3.04 nM in experiment [4]; 38 nM in experiment [5]; 18.9 nM in experiment [6].
Take `Cc1cc(C#N)ncc1Oc1cc(Nc2ccc(C(=O)N3CC(O)C3)nn2)c2ncn(C)c2n1` [Compound 115, 5-[7-[[6-(3-hydroxyazetidine-1-carbonyl)pyridazin-3-yl]amino]-3-methyl-imidazo[4,5-b]pyridin-5-yl]oxy-4-methyl-pyridine-2-carbonitrile]: the IC50 in experiment [1] worked out at 107 nM; in experiment [2] it was 29.1 nM; in experiment [3] it was 2110 nM; in experiment [4], 8.88 nM; in experiment [5] it was 144 nM; in experiment [6] it was 968 nM.
